Results reported in PMC12384620, “Hit-to-Lead Studies of Pyrazinylpiperazines against Visceral Leishmaniasis: Pharmacokinetic Profile and In Vivo Efficacy of Potent Compounds against Leishmania infantum” (ACS Pharmacology & Translational Science, 2025).

How the values were obtained:
[1] = Experimental lipophilicity elog(D) at pH 7.4 by retention time; assay type: physicochemical; conditions: pH 7.4, chromatographic
Procedure: The analysis was performed using LC-MS/MS (liquid chromatography-tandem mass spectrometry). The chromatography system used was a Prominence UFLC (Shimadzu Corporation, Kyoto, Japan), interfaced with a LCMS-8045 triple quadrupole mass spectrometer (Shimadzu Corporation, Kyoto, Japan) equipped with an electrospray ionization source (ESI).
For the determination of the distribution coefficient (elog(D)), a methodology based on the retention time of molecules in the stationary phase was used. The chromatogram was achieved on a Supelco Ascentis express RP amide HPLC column (5 cm x 2.1 mm, […]), using 5% methanol in 10 mM ammonium acetate pH 7.4 (A) and 100% methanol (B) as mobile phases. The mobile phase was eluted in binary gradient mode, as follows: 0 min: 95% A; 0.3 min: 100% A; 5.2 min: 0% A; 5.6 min: 0% A; 5.8 min: 100% A; 7.0 min: 100% A. The total run time was 7 min, and 5 μL of each sample were injected. The solutions of tested compounds were prepared at a concentration of 1.0 mg/mL in compound by adding the stock solution to a (1:1) mix of mobile phases A:B (internal standard at 200 nM), and the DMSO concentration was lower than 2%. […]

[2] = tested on: BALB/c mice; assay: Acute toxicity / maximum tolerated dose in uninfected mice; assay type: in vivo, mouse; conditions: intraperitoneal, accumulated dose 100 mg/kg, 24 h after last dose
Procedure: The maximum tolerated dose (MTD) of 2 was determined in BALB/c mice. One male and one female specimen, uninfected, 6 weeks old (ideal weight: 20 g), were each administered intraperitoneally an emulsified sample prepared with 70% PBS1X, 20% PEG 400 (Polyethylene glycol 400, Sigma-Aldrich), 0.16% Tween 80 and 10% of 2, with an initial dose of 5 mg/kg of 2. After 2 h, an additional dose of 15 mg/kg was administered (resulting in an accumulated dose (AD) of 20 mg/kg). After another 2 h, a new dose of 30 mg/kg was administered (AD = 50 mg/kg). After a further 2 h, a final dose of 50 mg/kg (AD = 100 mg/kg) was administered.

[3] = tested on: glycogen synthase kinase-3 (GSK-3); design: method as in earlier work; conditions: ref previous screening of potential GSK-3 inhibitors among the Leishbox; cited from earlier work

SMILES | elog(D) [1] | signs of acute toxicity (MTD determination) [2] | GSK-3 inhibition [3]
O=C(c1ccc(O)cc1)N1CCN(c2cnccn2)CC1 [Compound 2, (4-Hydroxyphenyl)(4-(pyrazin-2-yl)piperazin-1-yl)methanone] | 1.64 | no apparent signs of acute toxicity | –
O=C(c1ccc(O)c(Cl)c1)N1CCN(c2cnccn2)CC1 [Compound 1, (3-Chloro-4-hydroxyphenyl)(4-(pyrazin-2-yl)piperazin-1-yl)methanone] | – | – | did not inhibit
